Measured values from patent US20260242335A1, “HETEROCYCLOALKYL BETA-HYDROXY ALKYL AMINES FOR USE IN THE TREATMENT OF HYPERGLYCAEMIA AND DISORDERS CHARACTERISED BY HYPERGLYCAEMIA” (ATROGI AB, priority 2023, published 2026).
Counter-ions that a name gives are not always drawn.

What was measured:
[1] = test system: L6-myotubes; assay: Glucose uptake (3H-2-deoxyglucose) in differentiated L6-myotubes, compared to isoproterenol; type: cell-based; conditions: compound at 10 μM vs isoproterenol at 10 μM, read-out: Biological example 1: glucose uptake activity compared to that of isoproterenol
Description: (§1) L6-myoblasts were grown in Dulbecco's Modified Eagle's Medium (DMEM) containing 1 g/L glucose supplemented with 10% fetal bovine serum, 2 mM L-Glutamine, 50 U/mL penicillin, […] streptomycin and 10 mM HEPES. Cells were plated at 1×10^5 cells per mL in 24-well plates. After reaching 90% confluence the cells were grown in medium containing 2% FBS for 7 days where upon cells differentiated into myotubes.
Differentiated L6-myotubes were serum-starved overnight in medium containing 0.5% fatty-acid free BSA and stimulated with an agonist, with a final concentration of 1×10^−5 M. After 1 h 40 min the cells were washed with warm glucose free medium or PBS twice and another portion of agonist was added to the glucose free medium. After 20 min the cells were exposed to 50 nM ^3H-2-deoxyglucose for another 10 min before washed in ice cold glucose free medium or PBS three times and lysed in 400 μL/well 0.2 M NaOH for 1 h at 60° C. The cell lysate was mixed with 4 mL scintillation buffer (Emulsifier Safe, Perkin Elmer) and the radioactivity was detected in a p-counter (Tri-Carb 4810TR, Perkin Elmer). The activity for each compound is compared to that of isoproterenol.

[2] = test system: L6-myotubes; assay: Measurement of intracellular cAMP levels (alpha screen cAMP kit) in differentiated cells, compared to isoproterenol; type: cell-based; conditions: 0.25 h, compound at 10 μM vs isoproterenol at 10 μM, 15 min stimulation, read-out: Biological example 2: intracellular cAMP level activity compared to that of isoproterenol
Description: as §1
Differentiated cells were serum-starved overnight and stimulated with an agonist, final concentration 1×10^−5 M, for 15 min in stimulation buffer (HBSS supplemented with 1% BSA, 5 mM HEPES and 1 mM IBMX, pH 7.4). The medium was aspirated and 100 μL of 95% EtOH was added to each well of the 24-well plate and cells were kept at −20° C. overnight. The EtOH was allowed to evaporate and 500 μL of lysis buffer (1% BSA, 5 mM HEPES and 0.3% Tween-20, pH 7.4) was added to each well. The plate was kept at −80° C. for 30 min and then at −20° C. until the day of detection when the samples were thawed. Intracellular cAMP levels were detected using an alpha screen cAMP kit (6760635D from Perkin Elmer). The activity for each compound is compared to that of isoproterenol.

SMILES: CC(C)(C[C@@H]1CCCN(C(=O)OC(C)(C)C)C1)NC[C@H](O)c1cccc(F)c1 [Example 1, tert-Butyl (S)-3-(2-(((R)-2-(3-fluorophenyl)-2-hydroxyethyl)amino)-2-methypropyl)piperidine-1-carboxylate acetate]
- Emax at 10 µM [1]: > 75%
- Emax at 10 µM [2]: > 75%

SMILES: CC(C)(C[C@@H]1CCCNC1)NC[C@H](O)c1cccc(F)c1 [Example 2, (R)-1-(3-Fluorophenyl)-2-((2-methyl-1-((S)-piperidin-3-yl)propan-2-yl)amino)ethan-1-ol]
- Emax at 10 µM [1]: > 75%
- Emax at 10 µM [2]: 25 to 50%

SMILES: CC(=O)N1CCC[C@@H](CC(C)(C)NC[C@H](O)c2cccc(F)c2)C1 [Example 3, 1-((S)-3-(2-(((R)-2-(3-Fluorophenyl)-2-hydroxyethyl)amino)-2-methylpropyl)piperidin-1-yl)ethan-1-one hydrochloride]
- Emax at 10 µM [1]: > 75%
- Emax at 10 µM [2]: 50 to 75%

SMILES: CC(C)(C[C@@H]1CCCN(S(C)(=O)=O)C1)NC[C@H](O)c1cccc(F)c1 [Example 4, (R)-1-(3-Fluorophenyl)-2-((2-methyl-1-((S)-1-(methylsulfonyl)-piperidin-3-yl)propan-2-yl)amino)ethan-1-ol hydrochloride]
- Emax at 10 µM [1]: 50 to 75%
- Emax at 10 µM [2]: 25 to 50%

SMILES: CC(C)(C[C@@H]1CCCN(C(=O)C(C)(C)C)C1)NC[C@H](O)c1cccc(F)c1 [Example 5, 1-((S)-3-(2-(((R)-2-(3-Fluorophenyl)-2-hydroxyethyl)amino)-2-methylpropyl)piperidin-1-yl)-2,2-dimethylpropan-1-one]
- Emax at 10 µM [1]: 50 to 75%
- Emax at 10 µM [2]: < 25%

SMILES: CC(C)(C[C@@H]1CCCN(C(=O)C(F)(F)F)C1)NC[C@H](O)c1cccc(F)c1 [Example 6, 2,2,2-Trifluoro-1-((S)-3-(2-(((R)-2-(3-fluorophenyl)-2-hydroxyethyl)-amino)-2-methylpropyl)piperidin-1-yl)ethan-1-one]
- Emax at 10 µM [1]: > 75%
- Emax at 10 µM [2]: < 25%

SMILES: COC(=O)N1CCC[C@@H](CC(C)(C)NC[C@H](O)c2cccc(F)c2)C1 [Example 7, Methyl (S)-3-(2-(((R)-2-(3-fluorophenyl)-2-hydroxyethyl)amino)-2-methylpropyl)piperidine-1-carboxylate]
- Emax at 10 µM [1]: > 75%
- Emax at 10 µM [2]: 50 to 75%

SMILES: CN(C)C(=O)N1CCC[C@@H](CC(C)(C)NC[C@H](O)c2cccc(F)c2)C1 [Example 8, (S)-3-(2-(((R)-2-(3-Fluorophenyl)-2-hydroxyethyl)amino)-2-methyl-propyl)-N,N-dimethylpiperidine-1-carboxamide]
- Emax at 10 µM [1]: > 75%
- Emax at 10 µM [2]: < 25%

SMILES: CNC(=O)N1CCC[C@@H](CC(C)(C)NC[C@H](O)c2cccc(F)c2)C1 [Example 9, (S)-3-(2-(((R)-2-(3-Fluorophenyl)-2-hydroxyethyl)amino)-2-methyl-propyl)-N-methylpiperidine-1-carboxamide hydrochloride]
- Emax at 10 µM [1]: > 75%
- Emax at 10 µM [2]: 25 to 50%

SMILES: CN1CCC[C@@H](CC(C)(C)NC[C@H](O)c2cccc(F)c2)C1 [Example 10, (R)-1-(3-Fluorophenyl)-2-((2-methyl-1-((S)-1-methylpiperidin-3-yl)-propan-2-yl)amino)ethan-1-ol]
- Emax at 10 µM [1]: > 75%
- Emax at 10 µM [2]: < 25%

SMILES: CC(C)(C[C@@H]1CCCN(C(=O)OC(C)(C)C)C1)NC[C@H](O)c1cncc(F)c1 [Example 11, tert-Butyl (S)-3-(2-(((R)-2-(5-fluoropyridin-3-yl)-2-hydroxyethyl)-amino)-2-methylpropyl)piperidine-1-carboxylate]
- Emax at 10 µM [1]: > 75%
- Emax at 10 µM [2]: > 75%

SMILES: CC(C)(C[C@@H]1CCCNC1)NC[C@H](O)c1cncc(F)c1 [Example 12, (R)-1-(5-Fluoropyridin-3-yl)-2-((2-methyl-1-((S)-piperidin-3-yl)-propan-2-yl)amino)ethan-1-ol]
- Emax at 10 µM [1]: > 75%
- Emax at 10 µM [2]: < 25%

SMILES: CC(=O)N1CCC[C@@H](CC(C)(C)NC[C@H](O)c2cncc(F)c2)C1 [Example 13, 1-((S)-3-(2-(((R)-2-(5-Fluoropyridin-3-yl)-2-hydroxyethyl)amino)-2-methylpropyl)piperidin-1-yl)ethan-1-one dihydrochloride]
- Emax at 10 µM [1]: > 75%
- Emax at 10 µM [2]: < 25%

SMILES: CC(C)(C[C@@H]1CCCN(S(C)(=O)=O)C1)NC[C@H](O)c1cncc(F)c1 [Example 14, (R)-1-(5-Fluoropyridin-3-yl)-2-((2-methyl-1-((S)-1-(methylsulfonyl)-piperidin-3-yl)propan-2-yl)amino)ethan-1-ol hydrochloride]
- Emax at 10 µM [1]: 50 to 75%
- Emax at 10 µM [2]: < 25%

SMILES: CC(C)(C[C@@H]1CCCN(C(=O)C(C)(C)C)C1)NC[C@H](O)c1cncc(F)c1 [Example 15, 1-((S)-3-(2-(((R)-2-(5-Fluoropyridin-3-yl)-2-hydroxyethyl)amino)-2-methylpropyl)piperidin-1-yl)-2,2-dimethylpropan-1-one]
- Emax at 10 µM [1]: > 75%
- Emax at 10 µM [2]: < 25%

SMILES: CC(C)(C[C@@H]1CCCN(C(=O)C(F)(F)F)C1)NC[C@H](O)c1cncc(F)c1 [Example 16, 2,2,2-Trifluoro-1-((S)-3-(2-(((R)-2-(5-fluoropyridin-3-yl)-2-hydroxy-ethyl)amino)-2-methylpropyl)piperidin-1-yl)ethan-1-one]
- Emax at 10 µM [1]: > 75%
- Emax at 10 µM [2]: < 25%

SMILES: COC(=O)N1CCC[C@@H](CC(C)(C)NC[C@H](O)c2cncc(F)c2)C1 [Example 17, Methyl (S)-3-(2-(((R)-2-(5-fluoropyridin-3-yl)-2-hydroxyethyl)amino)-2-methylpropyl)piperidine-1-carboxylate dihydrochloride]
- Emax at 10 µM [1]: > 75%
- Emax at 10 µM [2]: > 75%

SMILES: CN(C)C(=O)N1CCC[C@@H](CC(C)(C)NC[C@H](O)c2cncc(F)c2)C1 [Example 18, (S)-3-(2-(((R)-2-(5-Fluoropyridin-3-yl)-2-hydroxyethyl)amino)-2-methylpropyl)-N,N-dimethylpiperidine-1-carboxamide dihydrochloride]
- Emax at 10 µM [1]: > 75%
- Emax at 10 µM [2]: < 25%

SMILES: CNC(=O)N1CCC[C@@H](CC(C)(C)NC[C@H](O)c2cncc(F)c2)C1 [Example 19, (S)-3-(2-(((R)-2-(5-Fluoropyridin-3-yl)-2-hydroxyethyl)amino)-2-methylpropyl)-N-methylpiperidine-1-carboxamide dihydrochloride]
- Emax at 10 µM [1]: > 75%
- Emax at 10 µM [2]: 50 to 75%

SMILES: CC(C)(C[C@@H]1CCCN(C(=O)OC(C)(C)C)C1)NC[C@H](O)c1cccc(C(F)(F)F)n1 [Example 20, tert-Butyl (S)-3-(2-(((S)-2-hydroxy-2-(6-(trifluoromethyl)pyridin-2-yl)-ethyl)amino)-2-methylpropyl)piperidine-1-carboxylate]
- Emax at 10 µM [1]: > 75%
- Emax at 10 µM [2]: < 25%

SMILES: CC(C)(C[C@@H]1CCCNC1)NC[C@H](O)c1cccc(C(F)(F)F)n1 [Example 21, (S)-2-((2-Methyl-1-((S)-piperidin-3-yl)propan-2-yl)amino)-1-(6-(trifluoromethyl)pyridin-2-yl)ethan-1-ol]
- Emax at 10 µM [1]: 50 to 75%
- Emax at 10 µM [2]: < 25%

SMILES: CC(=O)N1CCC[C@@H](CC(C)(C)NC[C@H](O)c2cccc(C(F)(F)F)n2)C1 [Example 22, 1-((S)-3-(2-(((S)-2-Hydroxy-2-(6-(trifluoromethyl)pyridin-2-yl)ethyl)-amino)-2-methylpropyl)piperidin-1-yl)ethan-1-one dihydrochloride]
- Emax at 10 µM [1]: > 75%
- Emax at 10 µM [2]: < 25%

SMILES: CC(C)(C[C@@H]1CCCN(S(C)(=O)=O)C1)NC[C@H](O)c1cccc(C(F)(F)F)n1 [Example 23, (S)-2-((2-Methyl-1-((S)-1-(methylsulfonyl)piperidin-3-yl)propan-2-yl)-amino)-1-(6-(trifluoromethyl)pyridin-2-yl)ethan-1-ol dihydrochloride]
- Emax at 10 µM [1]: 50 to 75%
- Emax at 10 µM [2]: < 25%

SMILES: CN1C[C@@H](CC(C)(C)NC[C@H](O)c2cccc(F)c2)CCC1=O [Example 79, (R)-5-(2-(((R)-2-(3-Fluorophenyl)-2-hydroxyethyl)amino)-2-methyl-propyl)-1-methylpiperidin-2-one hydrochloride]
- Emax at 10 µM [1]: > 75%

SMILES: CC(=O)NC1(C)CCN(CC(C)(C)NC[C@H](O)c2cccc(F)c2)CC1 [Example 87, (R)—N-(1-(2-((2-(3-Fluorophenyl)-2-hydroxyethyl)amino)-2-methyl-propyl)-4-methylpiperidin-4-yl)acetamide]
- Emax at 10 µM [1]: 50 to 75%

SMILES: CC(C)(CN1CCC(C)(NS(C)(=O)=O)CC1)NC[C@H](O)c1cccc(F)c1 [Example 88, (R)—N-(1-(2-((2-(3-Fluorophenyl)-2-hydroxyethyl)amino)-2-methyl-propyl)-4-methylpiperidin-4-yl)methanesulfonamide dihydrochloride]
- Emax at 10 µM [1]: 50 to 75%
